In US12180187B2, “1-phenyl-5-azinylpyrazolyl-3-oxyalkyl acids and their use for controlling unwanted plant growth” (BAYER AKTIENGESELLSCHAFT, priority 2019, dated 2024):

Legend:
VIOTR = test: Pre-emergence action at 320 g/ha against VIOTR; type: in vivo, Viola tricolor; conditions: dosage 320 g/ha
Text: (§1) b) Seeds of monocotyledonous and dicotyledonous weed plants and crop plants are placed in plastic or organic planting pots and covered with soil. The compounds of the invention, formulated in the form of wettable powders (WP) or as emulsion concentrates (EC), are then applied onto the surface of the covering soil as aqueous suspension or emulsion with addition of 0.5% additive at a water application rate of 600 l/ha (converted). After the treatment, the pots are placed in a greenhouse and kept under good growth conditions for the trial plants. After about 3 weeks, the effect of the preparations is scored visually in comparison with untreated controls as percentages. For example, 100% activity=the plants have died, 0% activity=like control plants. Tables 13 to 26 below show the effects of selected compounds of the general formula (I) on various harmful plants and at an application rate corresponding to 320 g/ha, which were obtained by the experimental procedure mentioned above.

DIGSA [1] = test: Pre-emergence action against DIGSA, 1280 g/ha; type: in vivo, Digitaria sanguinalis; conditions: visual scoring after about 3 weeks vs untreated controls, 100% = plants have died, 0% = like control plants
Text: (§2) 1. Pre-Emergence Herbicidal Effect and Crop Plant Compatibility a) Seeds of mono- and dicotyledonous weed plants are placed in plastic pots in sandy loam soil (doubly sown with one species each of mono- or dicotyledonous weed plants per pot) and covered with soil. The compounds of the invention, formulated in the form of wettable powders (WP) or as emulsion concentrates (EC), are then applied onto the surface of the covering soil as aqueous suspension or emulsion with addition of 0.5% additive at a water application rate equivalent to 600 litres per hectare. After the treatment, the pots are placed in a greenhouse and kept under good growth conditions for the trial plants. After about 3 weeks, the effect of the preparations is scored visually in comparison with untreated controls as percentages. For example, 100% activity=the plants have died, 0% activity=like control plants. 1. Pre-Emergence Effectiveness Tables 1 to 12 below show the effects of selected compounds of the general formula (I) according to Tables 1 and 2 on various harmful plants and at an application rate corresponding to 1280 g/ha, which were obtained by the experimental procedure mentioned above.

ECHCG [2] = test: Pre-emergence action against ECHCG, 1280 g/ha; type: in vivo, Echinochloa crus-galli; conditions: visual scoring after about 3 weeks vs untreated controls, 100% = plants have died, 0% = like control plants
Text: as §2

LOLRI = test: Pre-emergence action against LOLRI, 1280 g/ha; type: in vivo, Lolium rigidum; conditions: visual scoring after about 3 weeks vs untreated controls, 100% = plants have died, 0% = like control plants
Text: as §2

POAAN [3] = test: Pre-emergence action against POAAN, 1280 g/ha; type: in vivo, Poa annua; conditions: visual scoring after about 3 weeks vs untreated controls, 100% = plants have died, 0% = like control plants
Text: as §2

SETVI = test: Pre-emergence action against SETVI, 1280 g/ha; type: in vivo, Setaria viridis; conditions: visual scoring after about 3 weeks vs untreated controls, 100% = plants have died, 0% = like control plants
Text: as §2

AMARE [4] = test: Pre-emergence action against AMARE, 1280 g/ha; type: in vivo, Amaranthus retroflexus; conditions: scored visually after about 3 weeks vs untreated controls (100% = plants have died)
Text: as §2

MATIN [5] = test: Pre-emergence action against MATIN, 1280 g/ha; type: in vivo, Tripleurospermum inodorum (Matricaria inodora); conditions: scored visually after about 3 weeks vs untreated controls (100% = plants have died)
Text: as §2

STEME [6] = test: Pre-emergence action against STEME, 1280 g/ha; type: in vivo, Stellaria media; conditions: scored visually after about 3 weeks vs untreated controls (100% = plants have died)
Text: as §2

ALOMY [7] = test: Post-emergence action against ALOMY, 1.28 kg/ha; type: in vivo, Alopecurus myosuroides; conditions: dosage 1280 g/ha, visual rating about 3 weeks after treatment vs untreated controls
Experimental: (§3) • a) Seeds of mono- and dicotyledonous weed plants are placed in plastic pots in sandy loam soil (twin sowing with one species each of mono- or dicotyledonous weed plants per pot), covered with soil and cultivated in a greenhouse under controlled growth conditions. 2 to 3 weeks after sowing, the test plants are treated at the one-leaf stage. The compounds of the invention, formulated in the form of wettable powders (WP) or as emulsion concentrates (EC), are applied to the green parts of the plants as aqueous suspension or emulsion with addition of 0.5% additive at a water application rate equivalent to 600 litres per hectare. After the test plants have been kept in the greenhouse under optimum growth conditions for about 3 weeks, the activity of the preparations is rated visually in comparison to untreated controls. For example, 100% activity=the plants have died, 0% activity=like control plants. As shown by the results, compounds of the general formula (I) of the invention, in post-emergence treatment, have very good herbicidal efficacy (90% to 100% herbicidal action) against harmful plants such as Abutilon theophrasti, Digitaria sanguinalis, Echinochloa crus-galli, Matricaria inodora, Poa annua, at an application rate of 1.28 kg of active substance per hectare.

POAAN [8] = test: Post-emergence action against POAAN, 1.28 kg/ha; type: in vivo, Poa annua; conditions: dosage 1280 g/ha, visual rating about 3 weeks after treatment vs untreated controls
Experimental: as §3

ABUTH = test: Post-emergence action against ABUTH, 1.28 kg/ha; type: in vivo, Abutilon theophrasti; conditions: dosage 1280 g/ha, visual rating about 3 weeks after treatment vs untreated controls (100% = plants died)
Experimental: as §3

MATIN [9] = test: Post-emergence action against MATIN, 1.28 kg/ha; type: in vivo, Tripleurospermum inodorum (Matricaria inodora); conditions: dosage 1280 g/ha, visual rating about 3 weeks after treatment vs untreated controls (100% = plants died)
Experimental: as §3

VERPE [10] = test: Post-emergence action against VERPE, 1.28 kg/ha; type: in vivo, Veronica persica; conditions: dosage 1280 g/ha, visual rating about 3 weeks after treatment vs untreated controls (100% = plants died)
Experimental: as §3

VERPE [11] = test: Pre-emergence action against VERPE, 1280 g/ha; type: in vivo, Veronica persica; conditions: scored visually after about 3 weeks vs untreated controls (100% = plants have died)
Text: as §2

ECHCG [12] = test: Post-emergence action against ECHCG, 1.28 kg/ha; type: in vivo, Echinochloa crus-galli; conditions: dosage 1280 g/ha, visual rating about 3 weeks after treatment vs untreated controls
Experimental: as §3

AMARE [13] = test: Post-emergence action against AMARE, 1.28 kg/ha; type: in vivo, Amaranthus retroflexus; conditions: dosage 1280 g/ha, visual rating about 3 weeks after treatment vs untreated controls (100% = plants died)
Experimental: as §3

AMARE [14] = test: Pre-emergence action at 320 g/ha against AMARE; type: in vivo, Amaranthus retroflexus; conditions: visual scoring after about 3 weeks vs untreated controls
Text: as §1

ALOMY [15] = test: Pre-emergence action against ALOMY, 1280 g/ha; type: in vivo, Alopecurus myosuroides; conditions: visual scoring after about 3 weeks vs untreated controls, 100% = plants have died, 0% = like control plants
Text: as §2

DIGSA [16] = test: Post-emergence action against DIGSA, 1.28 kg/ha; type: in vivo, Digitaria sanguinalis; conditions: dosage 1280 g/ha, visual rating about 3 weeks after treatment vs untreated controls
Experimental: as §3

STEME [17] = test: Post-emergence action against STEME, 1.28 kg/ha; type: in vivo, Stellaria media; conditions: dosage 1280 g/ha, visual rating about 3 weeks after treatment vs untreated controls (100% = plants died)
Experimental: as §3

ALOMY [18] = test: Pre-emergence action at 320 g/ha against ALOMY; type: in vivo, Alopecurus myosuroides; conditions: scored visually after about 3 weeks vs untreated controls (100% = plants have died)
Text: as §1

POLCO = test: Pre-emergence action at 320 g/ha against POLCO; type: in vivo, Fallopia convolvulus (Polygonum convolvulus); conditions: visual scoring after about 3 weeks vs untreated controls
Text: as §1

Row | SMILES | Pre-emergence action against DIGSA (DIGSA [1]) [%] | Pre-emergence action against ECHCG (ECHCG [2]) [%] | Pre-emergence action against LOLRI (LOLRI) [%] | Pre-emergence action against POAAN (POAAN [3]) [%] | Pre-emergence action against SETVI (SETVI) [%] | Pre-emergence action against AMARE (AMARE [4]) [%] | Pre-emergence action against MATIN (MATIN [5]) [%] | Pre-emergence action against STEME (STEME [6]) [%] | Post-emergence action against ALOMY (ALOMY [7]) [%] | Post-emergence action against POAAN (POAAN [8]) [%] | Post-emergence action against MATIN (MATIN [9]) [%] | Post-emergence action against VERPE (VERPE [10]) [%] | Pre-emergence action against VERPE (VERPE [11]) [%] | Post-emergence action against AMARE (AMARE [13]) [%] | Pre-emergence action against ALOMY (ALOMY [15]) [%] | Post-emergence action against DIGSA (DIGSA [16]) [%] | Post-emergence action against STEME (STEME [17]) [%] | other results
1 | COC(=O)C1CCCN(C(=O)COc2nn(-c3ccccc3F)c(-c3ccc(F)nc3)c2Br)C1 (stereo not drawn) [Example X-018] |  |  |  |  |  |  |  |  |  |  |  |  |  |  |  |  |  | Pre-emergence action against VIOTR in % (VIOTR): 90%
2 | CONC(=O)COc1nn(-c2ccccc2F)c(-c2ccc(F)cn2)c1Br [II-003] | 100 | 100 | 100 | 100 | 100 | 100 | 100 | 90 | 100 | 100 | 90 | 100 |  |  |  |  |  | Post-emergence action against ABUTH (ABUTH): 90%
3 | O=C(O)COc1nn(-c2ccccc2F)c(-c2cnccn2)c1Br [Example I-003] | 90 | 90 | 90 | 100 | 90 | 90 | 90 | 100 |  | 100 | 90 | 90 | 90 | 100 |  |  |  | Post-emergence action against ECHCG (ECHCG [12]): 90%; Post-emergence action against ABUTH (ABUTH): 90%
4 | CSc1ccc(-c2c(Br)c(OCC(=O)O)nn2-c2ccccc2F)cn1 [VII-047] |  |  |  |  |  |  |  |  |  |  |  |  |  |  |  |  |  | Pre-emergence action against AMARE in % (AMARE [14]): 90%
5 | CS(=O)(=O)NC(=O)COc1nn(-c2ccccc2F)c(-c2ccnc(F)c2)c1Br [VIII-012] | 100 | 100 | 100 | 100 | 100 | 100 | 100 |  | 100 | 100 | 100 | 90 | 100 | 100 | 100 | 100 | 90 | Post-emergence action against ECHCG (ECHCG [12]): 100%
6 | COC(=O)COc1nn(-c2cc(F)ccc2F)c(-c2ccc(F)nc2)c1C#N [VII-063] | 100 |  | 100 | 100 | 100 | 100 | 90 | 100 | 100 | 100 | 90 | 90 | 100 | 100 | 100 |  | 100 | 
7 | COC(=O)COc1nn(-c2cc(F)ccc2F)c(-c2ccnc(F)c2)c1C#N [VIII-008] | 100 | 100 | 100 | 100 | 100 | 100 | 100 | 100 | 100 | 100 | 90 | 90 | 100 | 90 |  | 90 | 90 | 
8 | CCOC(=O)COc1nn(-c2ccccc2F)c(-c2ccc([S+](C)[O-])nc2)c1Br (stereo not drawn) [VII-044] |  |  |  |  |  |  |  |  |  |  |  |  |  |  |  |  |  | Pre-emergence action at 320 g/ha against ALOMY in % (ALOMY [18]): 90%; Pre-emergence action against AMARE in % (AMARE [14]): 90%; Pre-emergence action against POLCO in % (POLCO): 100%; Pre-emergence action against VIOTR in % (VIOTR): 100%
9 | O=C(O)C1CCCN(C(=O)COc2nn(-c3ccccc3F)c(-c3cncc(F)c3)c2Br)C1 (stereo not drawn) [Example X-033] | 90 |  |  | 100 | 90 | 90 | 90 | 90 | 100 | 100 | 100 | 100 | 90 | 100 | 90 | 90 |  | 
